Results as given in patent publication US6274715A, “Tricyclic erythromycin derivatives” (priority 1997, dated 2001).
Values after ≈ are worked out from the molar mass of the structure shown.

How the values were obtained:
Type in all cases: cell-based
[1] = system: STREPTOCOCCUS PYOGENES PIU 2548; assay: In vitro antibacterial activity, MIC, BHI agar dilution; conditions: S. pyogenes PIU 2548, unit assumed
[2] = system: STAPHYLOCOCCUS AUREUS A5177; assay: as above; conditions: S. aureus A5177, unit assumed
[3] = system: STAPHYLOCOCCUS AUREUS A-5278; assay: as above; conditions: S. aureus A-5278, unit assumed
[4] = system: STAPHYLOCOCCUS EPIDERMIDIS 3519; conditions: S. epidermidis 3519; BHI agar; unit assumed
[5] = system: MYCOBACTERIUM SMEGMATIS ATCC 114; assay: In vitro antibacterial activity, MIC, BHI agar dilution; conditions: M. smegmatis ATCC 114, unit assumed
[6] = system: ESCHERICHIA COLI JUHL; conditions: E. coli JUHL; BHI agar; unit assumed
[7] = system: PROVIDENCIA STUARTII CMX 640; conditions: P. stuartii CMX 640; BHI agar; unit assumed
[8] = system: ENTEROBACTER AEROGENES ATCC 13048; assay: In vitro antibacterial activity, MIC, BHI agar dilution; conditions: E. aerogenes ATCC 13048, unit assumed
[9] = system: ESCHERICHIA COLI DC-2; assay: as above; conditions: E. coli DC-2, unit assumed
[10] = system: KLEBSIELLA PNEUMONIAE ATCC 8045; assay: as above; conditions: K. pneumoniae ATCC 8045, unit assumed
[11] = system: PSEUDOMONAS AERUGINOSA BMH10; assay: as above; conditions: P. aeruginosa BMH10, unit assumed
[12] = system: PSEUDOMONAS AERUGINOSA DPHD-2862; assay: as above; conditions: P. aeruginosa DPHD-2862, unit assumed
[13] = system: ESCHERICHIA COLI KNK 437; conditions: E. coli KNK 437; BHI agar; unit assumed
[14] = system: ESCHERICHIA COLI H560; assay: In vitro antibacterial activity, MIC, BHI agar dilution; conditions: E. coli H560, unit assumed
[15] = system: ACINETOBACTER CALCOACETICUS CMX 669; assay: as above; conditions: A. calcoaceticus CMX 669, unit assumed
[16] = system: PSEUDOMONAS AERUGINOSA K799/WT; assay: as above; conditions: P. aeruginosa K799/WT, unit assumed
[17] = system: STAPHYLOCOCCUS AUREUS ATCC 6538P; assay: as above; conditions: S. aureus ATCC 6538P, 35-37° C., 20 to 24 hours, unit assumed
[18] = system: PSEUDOMONAS CEPACIA 296I; assay: as above; conditions: P. cepacia 296I, unit assumed
[19] = system: STREPTOCOCCUS PYOGENES EES61; assay: as above; conditions: S. pyogenes EES61, unit assumed
[20] = system: STREPTOCOCCUS PYOGENES 930; assay: as above; conditions: S. pyogenes 930, unit assumed
[21] = system: M[…] ATCC 4698; assay: as above; conditions: M. luteus ATCC 4698, unit assumed
Procedure, shortened: (§1)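 Twelve successive aqueous dilutions of compound in Brain Heart Infusion agar were inoculated with 1:100 culture dilutions (1:10 for slow growers such as Micrococcus, Streptococcus) by Steers replicator and incubated at 35-37° C for 20 to 24 hours. MIC was the lowest concentration giving no growth, slight haze or sparse colonies versus drug-free control.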

[22] = system: M[…] ATCC 9341; assay: as above; conditions: M. luteus ATCC 9341, unit assumed
Procedure, shortened: as §1

[23] = system: STR[…] 508; assay: as above; conditions: S. agalactiae CMX 508, unit assumed
Procedure, shortened: as §1

[24] = system: EN[…] ATCC 8043; assay: as above; conditions: E. faecium ATCC 8043, unit assumed
Procedure, shortened: as §1

[25] = system: PSEUDOMONAS AERUGINOSA K799/61; assay: as above; conditions: P. aeruginosa K799/61, unit assumed
[26] = system: ESCHERICHIA COLI SS; assay: as above; conditions: E. coli SS, unit assumed
[27] = system: PSEUDOMONAS AERUGINOSA DPHD-5263; assay: as above; conditions: P. aeruginosa DPHD-5263, unit assumed
[28] = system: STAPHYLOCOCCUS AUREUS CMX 553; assay: as above; conditions: S. aureus CMX 553, unit assumed
[29] = system: STAPHYLOCOCCUS AUREUS 1775; assay: as above; conditions: S. aureus 1775, unit assumed
[30] = system: STAPHYLOCOCCUS AUREUS CMX 642A; assay: as above; conditions: S. aureus CMX 642A, unit assumed
[31] = system: CANDIDA ALBICANS CCH 442; assay: as above; conditions: C. albicans CCH 442, unit assumed
[32] = system: STAPHYLOCOCCUS AUREUS NCTC10649M; assay: as above; conditions: S. aureus NCTC10649M, unit assumed
[33] = system: PSEUDOMONAS AERUGINOSA 5007; assay: as above; conditions: P. aeruginosa 5007, unit assumed
[34] = system: STREPTOCOCCUS BOVIS A-5169; assay: as above; conditions: S. bovis A-5169, unit assumed

SMILES	MIC [1] [µg/mL]	MIC [2] [µg/mL]	MIC [3] [µg/mL]	MIC [4] [µg/mL]	MIC [5] [µg/mL]	MIC [6] [µg/mL]	MIC [7] [µg/mL]	MIC [8] [µg/mL]	MIC [9] [µg/mL]	MIC [10] [µg/mL]	MIC [11] [µg/mL]	MIC [12] [µg/mL]	MIC [13] [µg/mL]	MIC [14] [µg/mL]	MIC [15] [µg/mL]	MIC [16] [µg/mL]	MIC [18] [µg/mL]	MIC [19] [µg/mL]	MIC [20] [µg/mL]	MIC [21] [µg/mL]	also measured
CC[C@H]1OC(=O)[C@H](C)C(=O)[C@H](C)[C@@H](O[C@@H]2O[C@H](C)C[C@H](N(C)C)[C@H]2O)[C@](C)(OC)C[C@@H](C)C2=N[C@@H]3CCCC[C@@H]3N3C(=O)O[C@@]1(C)[C@H]3[C@H]2C [Example 13]	0.2 (≈ 0.289 µM)	0.78 (≈ 1.13 µM)	> 100	0.78 (≈ 1.13 µM)	0.39 (≈ 0.564 µM)	50 (≈ 72.3 µM)	> 100	100 (≈ 145 µM)	100 (≈ 145 µM)	100 (≈ 145 µM)	> 100	> 100	100 (≈ 145 µM)	50 (≈ 72.3 µM)	> 100	> 100	> 100	0.02 (≈ 0.0289 µM)	> 100	0.78 (≈ 1.13 µM)	MIC [17]: 0.78 µg/mL (≈ 1.13 µM); MIC [22]: 0.2 µg/mL (≈ 0.289 µM); MIC [23]: 0.02 µg/mL (≈ 0.0289 µM); MIC [24]: 0.1 µg/mL (≈ 0.145 µM); MIC [25]: 3.1 µg/mL (≈ 4.48 µM); MIC [26]: 0.39 µg/mL (≈ 0.564 µM); MIC [27]: > 100 µg/mL; MIC [28]: 0.78 µg/mL (≈ 1.13 µM); MIC [29]: > 100 µg/mL; MIC [30]: 0.78 µg/mL (≈ 1.13 µM); MIC [31]: 3.1 µg/mL (≈ 4.48 µM); MIC [32]: 0.78 µg/mL (≈ 1.13 µM); MIC [33]: > 100 µg/mL
CC[C@H]1OC(=O)[C@H](C)C(=O)[C@H](C)[C@@H](O[C@@H]2O[C@H](C)C[C@H](N(C)C)[C@H]2O)[C@](C)(OC)C[C@@H](C)C2=N[C@@H]3CN(C(=O)OCc4ccccc4)C[C@@H]3N3C(=O)O[C@@]1(C)[C@H]3[C@H]2C [Example 20]	0.78 (≈ 0.959 µM)	0.78 (≈ 0.959 µM)	> 100	0.78 (≈ 0.959 µM)	3.1 (≈ 3.81 µM)	> 100	> 100	> 100	> 100	> 100	> 100	> 100	> 100	100 (≈ 123 µM)	100 (≈ 123 µM)	> 100	> 100	0.005 (≈ 0.00615 µM)	> 100	0.78 (≈ 0.959 µM)	MIC [22]: 0.39 µg/mL (≈ 0.48 µM); MIC [23]: 0.1 µg/mL (≈ 0.123 µM); MIC [24]: 0.39 µg/mL (≈ 0.48 µM); MIC [25]: 6.2 µg/mL (≈ 7.63 µM); MIC [26]: 3.1 µg/mL (≈ 3.81 µM); MIC [27]: > 100 µg/mL; MIC [28]: 1.56 µg/mL (≈ 1.92 µM); MIC [29]: > 100 µg/mL; MIC [34]: 0.1 µg/mL (≈ 0.123 µM); MIC [30]: 1.56 µg/mL (≈ 1.92 µM); MIC [31]: > 100 µg/mL; MIC [33]: > 100 µg/mL
